Test results reported in patent US12404244B2, “Pan-KIT kinase inhibitor having quinoline structure and application thereof” (Tarapeutics Science Inc., priority 2018, dated 2025).

Legend:
[1] = tested on: TEL-cKIT/Y823D-BaF3 mouse tumor model; assay: Tumor-grafted mouse model established with TEL-cKIT/Y823D-BaF3 cells; format: in vivo; conditions: oral, every day
Protocol: (§1) In this example Compound 1 and Compound 2 were respectively tested in TEL-cKIT/T670I-BaF3, TEL-cKIT/Y823D-BaF3, TEL-cKIT/D820G-BaF3 and GIST-T1-T670I mouse models.
(§2) Experimental protocols were as follows. • (1) Bal b/c female mice aged 4-6 weeks were purchased from Beijing Weitong Lihua Laboratory Animal Co., Ltd., and the mice were raised in an SPF laboratory. The drinking water and padding were sterilized by autoclaving. All operations on mice were conducted under aseptic conditions. • (2) About 5×10^6 TEL-cKIT/T670I-BaF3, TEL-cKIT/Y823D-BaF3, TEL-cKIT/D820G-BaF3 or GIST-T1-T670I cells were respectively injected subcutaneously onto the left back of all mice on Day 0. • (3) From Day 6, for the TEL-cKIT/T670I-BaF3 mouse model the corresponding mice were administrated orally every day with methylcellulose (HKI) as the vehicle (5 mice); with Compound 1 and Compound 2 at a dosage of 10 mg/kg, 20 mg/kg, 40 mg/kg, 100 mg/kg mouse weight (5 mice in each group); and with Sunitnib (purchased from MedChemExpress, China) at a dosage of 40 mg/kg mouse weight (5 mice). From day 6, for the TEL-cKIT/Y823D-BaF3 and TEL-cKIT/D820G-BaF3 mouse models the corresponding mice were administrated orally every day with methylcellulose (HKI) as the vehicle (5 mice); with Compound 1 and Compound 2 at a dosage of 40 mg/kg, 80 mg/kg mouse weight (5 mice in each group); and with Sunitnib (purchased from MedChemExpress, China) at a dosage of 40 mg/kg mouse weight (5 mice). From day 15, for the GIST-T1-T670I mouse model the corresponding mice were administrated orally every day with methylcellulose (HKI) as the vehicle (5 mice); with Compound 1 and Compound 2 at a dosage of 20 mg/kg, 40 mg/kg, 80 mg/kg mouse weight (5 mice in each group); and with Sunitnib at a dosage of 40 mg/kg mouse weight (5 mice). • (4) From day 6 (TEL-cKIT/T670I-BaF3, TEL-cKIT/Y823D-BaF3, TEL-cKIT/D820G-BaF3 mouse model) and From day 15 (GIST-T1-T670I mouse model), respectively, the length/width of the subcutaneous tumor were measured with a vernier caliper every day and the body weight of the mouse was recorded every day so as to determine the effects of Compound 1 and Compound 2 on the body weight and tumor size of the mice, respectively. • (5) The mice were sacrificed on Day 11 after administration for the TEL-cKIT/T670I-BaF3 mouse model, on Day 9 after administration for the TEL-cKIT/Y823D-BaF3 and TEL-cKIT/D820G-BaF3 mouse models, and on Day 28 after administration for the GIST-T1-T670I mouse model. The subcutaneous tumors were taken out, and the tumors were weighed and compared. • (6) The growth trend of subcutaneous tumors was calculated and the tumor size was calculated according to: length×width×width/2 mm^3.

[2] = tested on: TEL-cKIT/D820G-BaF3 mouse tumor model; assay: Tumor-grafted mouse model established with TEL-cKIT/D820G-BaF3 cells; format: in vivo; conditions: oral, every day
Protocol: as §1, §2

## COc1cc2nccc(Oc3ccc(NC(=O)Cc4ccc(Cl)c(C(F)(F)F)c4)cc3)c2cc1OC [Example 2, N-(4-((6,7-dimethoxyquinolin-4-yl)oxy)phenyl)-2-(4-chloro-3-(trifluoromethyl)phenyl)-acetamide]
[1]; 40 mg/kg
  inhibitory effects against tumor in mice: excellent inhibitory effects against tumor in mice
  tumor inhibition rate: ≥ 80%
[1]
  influence on mice weight: without significant influence on mice weight
[2]; 40 mg/kg
  inhibitory effects against tumor in mice: excellent inhibitory effects against tumor in mice
  tumor inhibition rate: ≥ 80%
[2]
  influence on mice weight: without significant influence on mice weight

## COc1cc2nccc(Oc3ccc(NC(=O)Cc4ccc(C)c(C(F)(F)F)c4)cc3)c2cc1OC [Example 1, N-(4-((6,7-dimethoxyquinolin-4-yl)oxy)phenyl)-2-(4-methyl-3-(trifluoromethyl)phenyl)acetamide]
[1]; 40 mg/kg
  inhibitory effects against tumor in mice: excellent inhibitory effects against tumor in mice
[1]
  influence on mice weight: without significant influence on mice weight
[2]; 40 mg/kg
  inhibitory effects against tumor in mice: excellent inhibitory effects against tumor in mice
[2]
  influence on mice weight: without significant influence on mice weight
